# Reference: patent publication US6734139B1, “N-aryl-uracile-based herbicides” (priority 1999, dated 2004)
# Values joined by “and” are separate entries in the source; they are usually repeats but may differ in a detail not shown here. Equal values may be shown once.
# Tests used:
# Assay type in all cases: in vivo
# maize = assay: Pre-emergence test in maize (crop plant compatibility); conditions: for Average damage (%): maize, pre-emergence, 0.1% Renex-36
# Description: (§1) Solvent: 2 to 3 parts by weight of acetone or N,N-dimethyl-formamide
# (§2) Emulsifier: 1 part by weight of alkylaryl polyglycol ether
# (§3) To produce a suitable preparation of active compound, 1 part by weight of active compound is mixed with the stated amount of solvent, the stated amount of emulsifier is added and the concentrate is diluted with water to the desired concentration. Formulated products are dissolved in water and then diluted with water to the desired concentration.
# (§4) The solutions of the other mixing components (active compounds or safeners) are prepared analogously. The separately prepared solutions of the various mixing components are then combined and, if appropriate, additional substances (formulation auxiliaries, additives, etc.) are added and, if appropriate, water is added to prepare the desired dilution.
# (§5) Seeds of the test plants are sown in standard soil. After 24 hours, the soil is sprayed with the preparation of active compound such that the particular amount of active compound desired in each case is applied per unit area. The concentration of active compound in the spray liquor is chosen such that the particular amount of active compound desired in each case is applied in 500 litres of water per hectare. The containers with the test plants are kept in a greenhouse at controlled temperature and controlled illumination until evaluation.
# (§6) 0%=no effect/no damage (like untreated control)
# Veronica = assay: Post-emergence test (herbicidal action, Colby): Veronica
# Text: (§7) The expected action for a given combination of two herbicides can be calculated as follows (cf. COLBY, S. R.: “Calculating synergistic and antagonistic responses of herbicide combinations”, Weeds 15, Pages 20-22, 1967):
# (§8) If the actual damage exceeds the calculated value, the combination has a superadditive effect, that is to say a synergistic effect.
# as §3, §4
# (§9) After three weeks, the degree of damage to the plants is rated in % damage in comparison to the development of the untreated control. The figures denote
# as §6
# Solanum = assay: Post-emergence test (herbicidal action, Colby): Solanum
# Text: as §7, §8, §3, §4, §9, §6
# weeds = assay: Pre-emergence test (herbicidal action against weeds, Colby)
# Text: as §7, §8
# The theoretically expected activity for a given combination of three herbicides can likewise be found in the literature mentioned above.
# as §1, §2, §3, §4, §5, §9, §6
# Datura [1] = assay: Post-emergence test (herbicidal action, Colby): Datura
# Abutilon [2] = assay: Post-emergence test (herbicidal action, Colby): Abutilon; conditions: 4 g of a.i./ha
# Chenopodium [3] = assay: Post-emergence test (herbicidal action, Colby): Chenopodium; conditions: 4 g of a.i./ha
# Matricaria [4] = assay: Post-emergence test (herbicidal action, Colby): Matricaria; conditions: 4 g of a.i./ha
# Polygonum [5] = assay: Post-emergence test (herbicidal action, Colby): Polygonum; conditions: 8 g of a.i./ha
# Alopecurus = assay: Pre-emergence test (herbicidal action, Colby): Alopecurus
# Cyperus = assay: Pre-emergence test (herbicidal action, Colby): Cyperus
# Digitaria = assay: Pre-emergence test (herbicidal action, Colby): Digitaria
# Echinochloa = assay: Pre-emergence test (herbicidal action, Colby): Echinochloa
# Setaria = assay: Pre-emergence test (herbicidal action, Colby): Setaria
# Abutilon [6] = assay: Pre-emergence test (herbicidal action, Colby): Abutilon
# Matricaria [7] = assay: Pre-emergence test (herbicidal action, Colby): Matricaria
# Polygonum [8] = assay: Pre-emergence test (herbicidal action, Colby): Polygonum
# Stellaria = assay: Pre-emergence test (herbicidal action, Colby): Stellaria; conditions: 4 g of a.i./ha
# Ipomoea = assay: Pre-emergence test (herbicidal action, Colby): Ipomoea
# Viola = assay: Pre-emergence test (herbicidal action, Colby): Viola; conditions: 8 g of a.i./ha
# Datura [9] = assay: Pre-emergence test (herbicidal action, Colby): Datura; conditions: 4 g of a.i./ha
# Chenopodium [10] = assay: Pre-emergence test (herbicidal action, Colby): Chenopodium; conditions: 4 g of a.i./ha
# Eriochloa = assay: Pre-emergence test (herbicidal action, Colby): Eriochloa
# Cassia = assay: Pre-emergence test (herbicidal action, Colby): Cassia; conditions: 4 g of a.i./ha
# Bromus = assay: Pre-emergence test (herbicidal action, Colby): Bromus; conditions: 4 g of a.i./ha
# Galium = assay: Pre-emergence test (herbicidal action, Colby): Galium; conditions: 8 g of a.i./ha
# Lolium = assay: Pre-emergence test (herbicidal action, Colby): Lolium; conditions: 8 g of a.i./ha
# [11] = single active compound at 4 g of a.i./ha
structure (smiles),measurement,setting,value
"CCS(=O)(=O)N(C(=O)C(C)(C)C)c1cc(-n2c(=O)cc(C(F)(F)F)n(C)c2=O)c(F)cc1C#N [I-3, N-[2-cyano-4-fluoro-5-(3-methyl-2,6-dioxo-4-trifluoromethyl-3,6-dihydro-1(2H)-pyrimidinyl)-phenyl]-N-(2,2-dimethyl-propanoyl)-1-ethanesulphonamide]",Maize (7 days),"maize; Table A28, 60 g of a.i./ha",10%
same,Maize (12 days),"maize; Table A28, 60 g of a.i./ha",20%
same,Maize (21 days),"maize; Table A28, 60 g of a.i./ha",17%
same,Maize (7 days),"maize; Table A28, 90 g of a.i./ha",20%
same,Maize (21 days),"maize; Table A28, 90 g of a.i./ha",36%
same,Maize (12 days),"maize; Table A29, 60 g of a.i./ha",20%
same,Maize (12 days),"maize; Table A29, 90 g of a.i./ha",30%
same,Maize (21 days),"maize; Table A29, 90 g of a.i./ha",36%
same,Maize (7 days),"maize; Table A31, 90 g of a.i./ha",20%
same,Maize (12 days),"maize; Table A31, 90 g of a.i./ha",30%
same,Maize (21 days),"maize; Table A31, 90 g of a.i./ha",29%
same,Average damage (%),maize; active compound 1 alone at 60 g of a.i./ha,17%
same,Average damage (%),maize; active compound 1 alone at 90 g of a.i./ha,36%
same,Veronica,Veronica; 4 g of a.i./ha,0%
same,Veronica,Veronica; 8 g of a.i./ha,70%
same,"damage, Veronica",Veronica; [11],0%
same,"damage, Veronica",Veronica; single active compound at 8 g of a.i./ha,70%
same,Solanum,Solanum; 4 g of a.i./ha,30%
same,"damage, Solanum",Solanum; [11],30%
same,Chenopodium (pre-emergence test),"weeds; Table 23, 4 g of a.i./ha",80
same,Galium (pre-emergence test),"weeds; Table 23, 4 g of a.i./ha",0
same,Lolium (pre-emergence test),"weeds; Table 23, 4 g of a.i./ha",0
same,Setaria (pre-emergence test),"weeds; Table 23, 4 g of a.i./ha",0
same,Eriochloa (pre-emergence test),"weeds; Table 23, 8 g of a.i./ha",50
same,Ipomoea (pre-emergence test),"weeds; Table 23, 8 g of a.i./ha",30
same,Setaria (pre-emergence test),"weeds; Table 23, 8 g of a.i./ha",0
same,Chenopodium (pre-emergence test),"weeds; Table A20, 4 g of a.i./ha",80
same,Datura (pre-emergence test),"weeds; Table A20, 4 g of a.i./ha",0
same,Ipomoea (pre-emergence test),"weeds; Table A20, 4 g of a.i./ha",30
same,Lolium (pre-emergence test),"weeds; Table A20, 4 g of a.i./ha",0
same,Datura (pre-emergence test),"weeds; Table A20, 8 g of a.i./ha",30
same,Galium (pre-emergence test),"weeds; Table A20, 8 g of a.i./ha",20
same,Ipomoea (pre-emergence test),"weeds; Table A20, 8 g of a.i./ha",30
same,Chenopodium (pre-emergence test),"weeds; Table A21, 4 g of a.i./ha",80
same,Datura (pre-emergence test),"weeds; Table A21, 4 g of a.i./ha",0
same,Polygonum (pre-emergence test),"weeds; Table A21, 4 g of a.i./ha",40
same,Ipomoea (pre-emergence test),"weeds; Table A21, 8 g of a.i./ha",30
same,Polygonum (pre-emergence test),"weeds; Table A21, 8 g of a.i./ha",90
same,Datura (pre-emergence test),"weeds; Table A22, 4 g of a.i./ha",0
same,Polygonum (pre-emergence test),"weeds; Table A22, 4 g of a.i./ha",40
same,Cassia (pre-emergence test),"weeds; Table A22, 8 g of a.i./ha",50
same,Cassia (pre-emergence test),"weeds; Table A24, 4 g of a.i./ha",0
same,Echinochloa (pre-emergence test),"weeds; Table A24, 4 g of a.i./ha",30
same,Lolium (pre-emergence test),"weeds; Table A24, 4 g of a.i./ha",0
same,Veronica (pre-emergence test),"weeds; Table A24, 4 g of a.i./ha",30
same,Echinochloa (pre-emergence test),"weeds; Table A24, 8 g of a.i./ha",30
same,Setaria (pre-emergence test),"weeds; Table A24, 8 g of a.i./ha",30
same,Bromus (pre-emergence test),"weeds; Table A25, 4 g of a.i./ha",0
same,Avena (pre-emergence test),"weeds; Table A25, 8 g of a.i./ha",40
same,Cyperus (pre-emergence test),"weeds; Table A25, 8 g of a.i./ha",50
same,Lolium (pre-emergence test),"weeds; Table A25, 8 g of a.i./ha",60
same,Avena (pre-emergence test),"weeds; Table A26, 4 g of a.i./ha",40
same,Digitaria (pre-emergence test),"weeds; Table A26, 4 g of a.i./ha",30
same,Echinochloa (pre-emergence test),"weeds; Table A26, 4 g of a.i./ha",0
same,Lolium (pre-emergence test),"weeds; Table A26, 4 g of a.i./ha",30
same,Matricaria (pre-emergence test),"weeds; Table A26, 4 g of a.i./ha",30
same,Setaria (pre-emergence test),"weeds; Table A26, 4 g of a.i./ha",0
same,Cassia (pre-emergence test),"weeds; Table A26, 8 g of a.i./ha",30
same,Echinochloa (pre-emergence test),"weeds; Table A26, 8 g of a.i./ha",30
same,Lolium (pre-emergence test),"weeds; Table A26, 8 g of a.i./ha",30
same,Matricaria (pre-emergence test),"weeds; Table A26, 8 g of a.i./ha",70
same,Setaria (pre-emergence test),"weeds; Table A26, 8 g of a.i./ha",30
same,Abutilon (pre-emergence test),"weeds; Table A27, 8 g of a.i./ha",95
same,Cassia (pre-emergence test),"weeds; Table A27, 8 g of a.i./ha",30
same,Polygonum (pre-emergence test),"weeds; Table A27, 8 g of a.i./ha",20
same,Datura,Datura [1]; 4 g of a.i./ha,30%
same,Datura,Datura [1]; 8 g of a.i./ha,60%
same,Abutilon,Abutilon [2],0%
same,Chenopodium,Chenopodium [3],0%
same,Matricaria,Matricaria [4],70%
same,Polygonum,Polygonum [5],60%
same,Alopecurus,Alopecurus; 4 g of a.i./ha,0%
same,Alopecurus,Alopecurus; 8 g of a.i./ha,0%
same,Cyperus,Cyperus; 4 g of a.i./ha,0%
same,Cyperus,Cyperus; 8 g of a.i./ha,30%
same,Digitaria,Digitaria; 4 g of a.i./ha,0%
same,Digitaria,Digitaria; 8 g of a.i./ha,20%
same,Echinochloa,Echinochloa; 4 g of a.i./ha,0%
same,Echinochloa,Echinochloa; 8 g of a.i./ha,0%
same,Setaria,Setaria; 4 g of a.i./ha,0%
same,Setaria,Setaria; 8 g of a.i./ha,0%
same,pest or weed control at 4 g/ha,Abutilon [6]; 4 g of a.i./ha,20%
same,pest or weed control at 8 g/ha,Abutilon [6]; 8 g of a.i./ha,50%
same,Matricaria,Matricaria [7]; 4 g of a.i./ha,50%
same,Matricaria,Matricaria [7]; 8 g of a.i./ha,90%
same,Polygonum,Polygonum [8]; 4 g of a.i./ha,0%
same,Polygonum,Polygonum [8]; 8 g of a.i./ha,90%
same,Stellaria,Stellaria,80%
same,Ipomoea,Ipomoea; 4 g of a.i./ha,30% and 50%
same,Ipomoea,Ipomoea; 8 g of a.i./ha,30%
same,Viola,Viola,90%
same,Datura,Datura [9],30%
same,Chenopodium,Chenopodium [10],80%
same,Eriochloa,Eriochloa; 4 g of a.i./ha,30%
same,Eriochloa,Eriochloa; 8 g of a.i./ha,50%
same,Cassia,Cassia,40%
same,Bromus,Bromus,0%
same,Galium,Galium,30%
same,Lolium,Lolium,20%
